Laboratory results as given in patent US20080051454A1, “Compositions and methods for transient receptor potential vanilloid (TRPV) channel mediated treatments” (The Board of Trustees Operating Michigan State University, priority 2006, published 2008).

How the values were obtained:
hearts of WT mice = assay: Langendorff perfused heart, ischemia and reperfusion (I/R) with OLDA, wild type; parameters: species or system mouse; settings: antagonist 1×10^−6 M
Protocol: The following measurements were made on the two types of heart tissue: left ventricular end-diastolic pressure (LVEDP), left ventricular developed pressure (LVDP), coronary flow (CF), and left ventricular (LV) peak positive rate of pressure change/rate of time change (+dP/dt) were evaluated after I/R.

WT and TRPV1−/− hearts = assay: OLDA-induced CGRP and SP release from hearts (radioimmunoassay); parameters: species or system mouse
Wistar rats fed HS diet = assay: Blood pressure after i.v. SR141716A or CAPZ in conscious rats fed HS diet (Example I); assay type: in vivo, rat; settings: 3 mg/kg iv
Protocol: Experiments were approved by the Institutional Animals Care and Use Committee. Experiments were performed using male Wistar rats (Charles River Laboratory, Wilmington, Mass.). Rats (6 weeks old) were housed in the animal facility for 1 week before the experiments. Rats were then randomly assigned to a normal-sodium (NS) diet (0.4% of Na+ by weight, Harlan Teklad) or HS (4% of Na+ by weight; Harlan Teklad) for 3 weeks. Rats drank water ad libitum throughout the experiment.
Surgical Preparation and MAP measurements: The rats were anesthetized with ketamine and xylazine (80 and 4 mg/kg intraperitoneally, respectively) for implantation of vascular catheters or with urethane ([…] intraperitoneally) throughout protocol 2. […]
Protocol 1: Rats fed a NS or HS diet were randomly assigned to 5 groups for intravenous injection of vehicle or MethA alone or in combination with SR141716A (a CB1 receptor antagonist), CAPZ (a VR1 receptor antagonist), or the combination of the 2 (n=5 to 8). Baseline MAP and its response to the aforementioned drugs were determined 3 hours after surgery when animals were fully awake and unrestrained as described previously. […]

[1] = tested on: rats fed either a high or normal sodium diet; settings: cited from earlier work
[2] = tested on: Wistar rats fed a normal-salt (NS) or high-salt (HS) diet for 10 days; assay: MAP and HR responses to i.v. bolus NADA with or without antagonists in conscious rats; assay type: in vivo, rat; settings: for prolonged depressor effect of NADA (decrease in MAP) after antagonist: NADA 4 mg/kg after CAPZ 3 mg/kg, CGRP8-37 infusion or SR141716A 3 mg/kg
Source text: In brief: Wistar rats were fed a normal (NS, 0.4%) or high (HS, 4%) sodium diet for 10 days, then artery and vein were cannulated for measurement of mean arterial pressure (MAP) or for injection of drugs and collection of plasma.
Animal Preparation: Male Wistar rats (7 weeks old, Charles River Laboratory, Wilmington, Mass.) were housed in the animal facility for 1 week before the experiment. Rats were grouped randomly and pair-fed a NS (0.4% of Na^+ by weight) or HS (4% of Na^+ by weight) diet for 10 days. The rat chow was purchased from Harlan Teklad Diets (Madison, Wis.). Drinking water was available ad libitum throughout the experiment. All protocols were in accordance with the National Institutes of Health Guidelines for the Care and Use of Laboratory Animals.
Surgical Preparation Rats were anesthetized with ketamine and xylazine (80 and 4 mg/kg intraperitoneally, respectively) for cannulation or with urethane (1.5 g/kg intraperitoneally) for capsaicin administration. The left jugular vein, carotid and femoral artery were cannulated under anesthesia for injection of drugs or monitoring of mean arterial pressure (MAP) and heart rate (HR).
Three hours after surgery, baseline MAP and its response to the above-mentioned drugs were obtained with the rats fully awake and unrestrained [Wang et al., Am J Physiol 2004; 287:H1868-H[874]. NADA was injected in increasing doses (1, 4, and 10 mg/kg intravenous bolus) in 3 subgroups of rats (each group for each dose). To determine the role of TRPV1 and CB 1 receptor in NADA-induced hypotension, NADA (4 mg/kg) was injected 10 minutes or 20 minutes after intravenous injection of CAPZ (3 mg/kg) or SR141716A (3 mg/kg), respectively.
To examine the effect of CGRP8-37 on NADA-induced hypotension, CGRP8-37 was intravenously administered at the rate of 1 mg/kg/min for 2 minutes followed by injection at the rate of 0.5 mg/kg/min for 15 minutes. NADA (4 mg/kg) was injected 1 minute after CGRPs-37 administration. The effectiveness of the dose and time frame for CGRP8-37 injection was verified by blockade of the hypotensive response to capsaicin (30 μg/kg) (n=5).

mesenteric arteries = assay: MethA-induced CGRP release from isolated mesenteric arteries (radioimmunoassay); parameters: species or system rat; settings: CAPZ 10 μM, MethA 10 μM; NS or HS
Protocol: The arteries were dissected free of fat and connective tissues.
The preparations were incubated in a Krebs' solution of the following compositions (in mM): NaCl 119, NaHCO3 25, KH2PO4 1.2, MgSO4 1.5, CaCl2 2.5, KCl 4.7, and D-glucose 11. The Krebs' solution was maintained at 37 °C and gassed with 95% O2 and 5% CO2. After 1 h stabilization period, the arteries were transferred to another chamber containing 1 ml of Krebs' solution with the addition of 0.05% BSA and drugs. […] The tissues were removed after 20 min incubation, and the solutions were collected. At the end of the experiment, the tissues were blotted and weighted.
This antibody has 100% cross-reactivity with rat α-CGRP and 79% with rat β-CGRP. There is no cross-reactivity with rat amylin, calcitonin, somatostatin, or substance P.

In the case of `Oc1cc2c(cc1O)CN(C(=S)NCCc1ccc(Cl)cc1)CCC2` [CAPZ, N-[2-(4-Chlorophenyl)ethyl]-1,3,4,5-tetrahydro-7,8-dihydroxy-2H-2-benzazepine-2-carbothioamide], the “effect on protective effect of OLDA in WT hearts” value (hearts of WT mice) is reported as “abolished”, the “effect on OLDA-increased CGRP and SP release in WT hearts” value (WT and TRPV1−/− hearts) is reported as “blocked” and the “duration of transient elevation in blood pressure after injection” value (Wistar rats fed HS diet) is reported as at most 7 min. For the same molecule, the “effect on capsaicin actions on plasma CGRP and MAP” value ([1]; rat, in vivo) was “blocked”, the “pro-hypertensive effects of salt” value ([1]; rats fed a high salt diet) was “unmasked” and the “effect of antagonist on NADA-induced depressor effect” value ([2]; NADA 4 mg/kg) was “abolished”. The “prolonged depressor effect of NADA (decrease in MAP) after antagonist” value ([2]; HS diet) was 7±2 mmHg, the “prolonged depressor effect of NADA (decrease in MAP) after antagonist” value ([2]; NS diet) was 6±2 mmHg and the “effect on MethA-induced CGRP release” value (mesenteric arteries) was “blocked”.
